From US20130059876A1, “LIQUID NASAL SPRAY CONTAINING LOW-DOSE NALTREXONE” (L Molteni & C Dei Fratelli Alitti Societa Di Esercizio S.p.A, priority 2010, published 2013)
Where “and” joins values, the source holds several entries; their conditions need not be identical. Equal entries are not always repeated.

Assays:
[1] = test system: Spine patients undergoing therapy with morphine by the spinal route; assay: Clinical study: naltrexone in spine patients undergoing therapy with morphine by the spinal route; format: in vivo; conditions: individual patient, ½ hour before epidural load, spinal morphine (average 4.8 mg +/- 0.4 mg)
[2] = test system: Oncologic patients receiving therapy with morphine orally; assay: Clinical study: naltrexone in oncologic patients receiving therapy with morphine orally; format: in vivo; conditions: individual patient, ½ hour before oral morphine (average 40 mg +/- 10 mg)
patients = patients (total number 80) before treatment with Naltrexone
[3] = naltrexone 1 mcg every 12 hours
[4] = naltrexone 2.5 mcg every 12 hours
[5] = naltrexone 5 mcg every 12 hours
[6] = naltrexone 0.125 mcg every 12 hours

O=C1CC[C@@]2(O)[C@H]3Cc4ccc(O)c5c4[C@@]2(CCN3CC2CC2)[C@H]1O5 [Naltrexone, naltrexone]
Analgesia (%): analgesic efficacy after administration of naltrexone ([1]; naltrexone 1 mg every 12 hours): 95% and 60% and 65% | Benefit (%): percentage reduction of adverse effects ([1]; naltrexone 1 mg every 12 hours): 65% (2×) and 50% | Analgesia (%): analgesic efficacy after administration of naltrexone [1, 3]: 65% and 45% (2×) | Benefit (%): percentage reduction of adverse effects [1, 3]: 65% and 70% and 100% | Analgesia (%): analgesic efficacy after administration of naltrexone [1, 4]: 45% (2×) and 75% and 60% and 55% (2×) and 90% and 0% and 100% (3×) and 85% | Benefit (%): percentage reduction of adverse effects [1, 4]: 45% (2×) and 80% (4×) and 60% (3×) and 100% (2×) and 95% | Analgesia (%): analgesic efficacy after administration of naltrexone [1, 5]: 45% and 100% and 60% (3×) and 35% and 85% and 15% | Benefit (%): percentage reduction of adverse effects [1, 5]: 70% (2×) and 95% and 50% (3×) and 65% and 30% | Analgesia (%): analgesic efficacy after administration of naltrexone ([2]; naltrexone 1 mg every 12 hours): 100% (8×) and 90% (2×) and 65% (2×) and 60% (2×) and 70% (3×) and 65%** (3×) and 55% and 75%** and 70%** and 85% (2×) and 45%** and 45% | Benefit (%): percentage reduction of adverse effects ([2]; naltrexone 1 mg every 12 hours): 90% (3×) and 65% (8×) and 40% (2×) and 70% (4×) and 100% (3×) and 75% and 95% and 0% and 55% and 50% and 80% (2×) | Analgesia (%): analgesic efficacy after administration of naltrexone [2, 6]: 45% (2×) and 55%** and 65%** and 60% | Benefit (%): percentage reduction of adverse effects [2, 6]: 65% (3×) and 40% and 100% | Analgesia (%): analgesic efficacy after administration of naltrexone ([2]; naltrexone 0.125 mcg/day): 60% | Benefit (%): percentage reduction of adverse effects ([2]; naltrexone 0.125 mcg/day): 100% | Analgesia (%): analgesic efficacy after administration of naltrexone [2, 4]: 0% and 45% (7×) and 55% (2×) and 60%** and 100% (2×) and 70% and 60% (3×) and 40% | Benefit (%): percentage reduction of adverse effects [2, 4]: 100% and 80% (5×) and 70% and 50% (3×) and 65% (2×) and 40% and 60% (2×) and 25% and 55% and 90% | Analgesia (%): analgesic efficacy after administration of naltrexone ([2]; naltrexone 2.5 mcg/day): 60% | Benefit (%): percentage reduction of adverse effects ([2]; naltrexone 2.5 mcg/day): 90% | Analgesia (%): analgesic efficacy after administration of naltrexone [2, 5]: 45% (2×) and 55% (5×) and 70% and 100% (3×) and 90% (3×) and 60% (3×) and 65% and 60%** (2×) and 65%** and 55%** and 70%** | Benefit (%): percentage reduction of adverse effects [2, 5]: 60% (4×) and 0% and 70% and 50% (3×) and 45% (4×) and 85% (2×) and 55% (2×) and 35% and 40% (2×) and 65% and 100% (2×)

CN1CC[C@]23c4c5ccc(O)c4O[C@H]2[C@@H](O)C=C[C@H]3[C@H]1C5 [morphine]
Incidence of adverse effects from morphine: Asthenia (patients): 43.3% | Incidence of adverse effects from morphine: Constipation (patients): 70% | Incidence of adverse effects from morphine: Dizziness (patients): 13.3% | Incidence of adverse effects from morphine: Drowsiness (patients): 30% | Incidence of adverse effects from morphine: Headache (patients): 6.7% | Incidence of adverse effects from morphine: Inappetence (patients): 46.7% | Incidence of adverse effects from morphine: Nausea (patients): 53.3% | Incidence of adverse effects from morphine: Pruritus (patients): 30% | Incidence of adverse effects from morphine: Vomiting (patients): 53.3%
